Target: T1, human F508del CFTR (Homo sapiens, UniProt P13569, DEL508-508)
T1 construct: expressed in transfected cells
Assay: CFTR-YFP Assay, CFTR Corrector Protocol (YFP flux assay)
Assay type: cell-based
Conditions: for Emax: normalized to the positive control, read-out: EMAX (% Efficacy, EMAX normalized to the positive control)

T1 sequence (P13569 with tags, fused parts or gaps DEL508-508): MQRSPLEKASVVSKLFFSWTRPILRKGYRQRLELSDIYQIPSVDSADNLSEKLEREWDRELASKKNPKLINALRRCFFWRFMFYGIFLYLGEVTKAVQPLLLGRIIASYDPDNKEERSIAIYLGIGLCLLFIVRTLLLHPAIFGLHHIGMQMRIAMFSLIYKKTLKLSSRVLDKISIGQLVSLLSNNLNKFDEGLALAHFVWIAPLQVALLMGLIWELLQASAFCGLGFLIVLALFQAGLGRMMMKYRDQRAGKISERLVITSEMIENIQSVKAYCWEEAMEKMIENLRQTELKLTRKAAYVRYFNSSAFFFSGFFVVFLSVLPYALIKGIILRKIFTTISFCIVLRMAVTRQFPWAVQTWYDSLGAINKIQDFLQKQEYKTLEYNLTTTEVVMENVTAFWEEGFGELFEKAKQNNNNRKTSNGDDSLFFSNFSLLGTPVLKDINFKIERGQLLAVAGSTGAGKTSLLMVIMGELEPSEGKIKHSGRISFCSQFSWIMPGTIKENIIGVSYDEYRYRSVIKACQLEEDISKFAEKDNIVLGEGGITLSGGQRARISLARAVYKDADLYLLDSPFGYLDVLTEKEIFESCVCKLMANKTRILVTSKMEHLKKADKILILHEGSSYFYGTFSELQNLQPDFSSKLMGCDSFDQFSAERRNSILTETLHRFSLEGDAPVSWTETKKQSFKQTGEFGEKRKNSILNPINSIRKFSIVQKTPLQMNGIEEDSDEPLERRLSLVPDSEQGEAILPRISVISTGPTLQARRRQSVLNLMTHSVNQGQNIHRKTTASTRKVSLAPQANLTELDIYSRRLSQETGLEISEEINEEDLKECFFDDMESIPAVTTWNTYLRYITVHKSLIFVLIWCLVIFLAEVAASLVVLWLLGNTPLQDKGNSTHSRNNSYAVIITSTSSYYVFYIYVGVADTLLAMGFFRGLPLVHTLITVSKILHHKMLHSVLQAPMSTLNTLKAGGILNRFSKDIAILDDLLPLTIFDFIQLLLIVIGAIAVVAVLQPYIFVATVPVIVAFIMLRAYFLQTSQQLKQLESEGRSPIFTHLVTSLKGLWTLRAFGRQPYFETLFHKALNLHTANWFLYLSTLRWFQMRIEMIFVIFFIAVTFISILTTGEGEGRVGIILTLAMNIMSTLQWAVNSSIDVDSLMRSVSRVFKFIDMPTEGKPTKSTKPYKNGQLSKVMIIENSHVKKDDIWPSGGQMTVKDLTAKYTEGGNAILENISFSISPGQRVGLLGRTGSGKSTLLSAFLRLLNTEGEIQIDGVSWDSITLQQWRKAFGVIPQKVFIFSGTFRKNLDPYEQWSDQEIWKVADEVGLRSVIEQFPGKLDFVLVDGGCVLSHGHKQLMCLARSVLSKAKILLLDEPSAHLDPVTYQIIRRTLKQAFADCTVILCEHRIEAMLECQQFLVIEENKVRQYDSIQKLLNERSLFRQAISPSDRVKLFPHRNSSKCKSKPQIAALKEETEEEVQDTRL

SMILES	EC50 [µM]	Emax [%]
Cc1cccc(N(C2CCN(S(=O)(=O)c3ccc4c(c3)OC(F)(F)O4)CC2)S(=O)(=O)c2ccccc2)n1 [Example 188]	< 10	10 to 30
CCc1ccc(S(=O)(=O)N2CCC(N(c3cccc(C)n3)S(=O)(=O)c3ccccc3Cl)CC2)cc1 [Example 189]	< 10	30 to 80
COc1ccc(S(=O)(=O)N2CCC(N(c3cccc(C)n3)S(=O)(=O)c3ccccc3Cl)CC2)cc1Cl [Example 190]	< 10	10 to 30
Cc1cccc(N(C2CCN(S(=O)(=O)c3ccc4c(c3)OC(F)(F)O4)CC2)S(=O)(=O)c2ccccc2Cl)n1 [Example 191]	10 to 20	10 to 30
CCc1ccc(S(=O)(=O)N2CCC(N(c3cccc(C)n3)S(=O)(=O)c3c(C)cc(C)cc3C)CC2)cc1 [Example 192]	< 10	30 to 80
COc1ccc(S(=O)(=O)N2CCC(N(c3cccc(C)n3)S(=O)(=O)c3c(C)cc(C)cc3C)CC2)cc1Cl [Example 193]	< 10	30 to 80
Cc1cc(C)c(S(=O)(=O)N(c2cccc(C)n2)C2CCN(S(=O)(=O)c3ccc4c(c3)OC(F)(F)O4)CC2)c(C)c1 [Example 194]	< 10	30 to 80
CCc1ccc(S(=O)(=O)N2CCC(N(C(=S)c3ccccc3)c3ccccn3)CC2)cc1 [Example 195]	< 10	30 to 80
CCc1ccc(S(=O)(=O)N2CCC(N(C(=O)c3ccccc3Cl)c3ccccn3)CC2)cc1 [Example 196]	10 to 20	30 to 80
O=C(c1ccccc1Cl)N(c1ccccn1)C1CCN(S(=O)(=O)c2ccc3c(c2)OCO3)CC1 [Example 197]	< 10	10 to 30
COc1ccc(S(=O)(=O)N2CCC(N(C(=O)c3ccccc3Cl)c3ccccn3)CC2)cc1Cl [Example 198]	< 10	10 to 30
CCc1ccc(S(=O)(=O)N2CCC(N(C(=O)c3ccncc3Cl)c3ccccn3)CC2)cc1 [Example 199]	< 10	10 to 30
COc1ccc(S(=O)(=O)N2CCC(N(C(=O)c3ccccc3Cl)c3cccc(C)n3)CC2)cc1F [Example 200]	< 10	10 to 30
CCc1ccc(S(=O)(=O)N2CCC(N(C(=O)c3ccccc3Cl)c3cccc(C)n3)CC2)cc1 [Example 201]	< 10	30 to 80
Cc1cccc(N(C(=O)c2ccccc2Cl)C2CCN(S(=O)(=O)c3ccc4c(c3)OCO4)CC2)n1 [Example 202]	< 10	10 to 30
COc1ccc(S(=O)(=O)N2CCC(N(C(=O)c3ccccc3Cl)c3ccccn3)CC2)cc1F [Example 203]	< 10	1
O=C(c1ccccc1)N(c1ccccn1)C1CCN(S(=O)(=O)c2ccc3c(c2)OC(F)(F)O3)CC1 [Example 204]	< 10	10 to 30
Cc1cccc(N(C(=O)c2ccccc2)C2CCN(S(=O)(=O)c3ccc4c(c3)OC(F)(F)O4)CC2)n1 [Example 205]	< 10	10 to 30
COc1ccc(S(=O)(=O)N2CCC(N(C(=O)c3ccccc3Cl)c3cccc(C)n3)CC2)cc1Cl [Example 206]	10 to 20	10 to 30
CCc1ccc(N(C(=O)c2ccccc2Cl)C2CCN(S(=O)(=O)c3ccc(CC)cc3)CC2)cc1 [Example 208]	10 to 20	30 to 80

SMILES	EC50 [µM]	Emax [%]
CCc1ccc(S(=O)(=O)N2CCC(N(C(=O)c3ccccc3Cl)c3ccc4c(c3)OC(F)(F)O4)CC2)cc1 [Example 209]	< 10	30 to 80
CCc1ccc(S(=O)(=O)N2CCC(N(C(=O)c3ccccc3Cl)c3ccccc3)CC2)cc1 [Example 210]	10 to 20	30 to 80
CCc1ccc(S(=O)(=O)N2CCC(N(C(=S)c3ccccc3Cl)c3ccc(OC)cc3)CC2)cc1 [Example 211]	10 to 20	30 to 80
CCc1ccc(S(=O)(=O)N2CCC(N(C(=S)c3ccccc3Cl)c3ccc4c(c3)OC(F)(F)O4)CC2)cc1 [Example 212]	10 to 20	30 to 80
CCc1ccc(S(=O)(=O)N2CCC(N(C(=S)c3ccccc3Cl)c3ccccc3)CC2)cc1 [Example 213]	10 to 20	10 to 30
CCc1ccc(S(=O)(=O)N2CCC(N(C(=O)c3ccccc3Cl)c3ccc(Br)cc3)CC2)cc1 [Example 214]	< 10	10 to 30
CCc1ccc(S(=O)(=O)N2CCC(N(C(=O)c3ccccc3Cl)c3ccc(I)cc3)CC2)cc1 [Example 216]	< 10	10 to 30
CCc1ccc(S(=O)(=O)N2CCC(N(C(=O)c3ccccc3Cl)c3cccc(Cl)c3)CC2)cc1 [Example 217]	< 10	10 to 30
CCc1ccc(S(=O)(=O)N2CCC(N(c3ccc(OC)cn3)S(=O)(=O)c3ccccc3Cl)CC2)cc1 [Example 218]	< 10	10 to 30
COc1ccc(N(C2CCN(S(=O)(=O)c3ccc4c(c3)OC(F)(F)O4)CC2)S(=O)(=O)c2ccccc2Cl)nc1 [Example 219]	< 10	10 to 30
Cc1cccc(N(C2CCN(S(=O)(=O)c3ccc4nc(C)oc4c3)CC2)S(=O)(=O)c2ccccc2Cl)n1 [Example 220, 2-Chloro-N-(1-((2-methylbenzo[d]oxazol-6-yl)sulfonyl)piperidin-4-yl)-N-(6-methylpyridin-2-yl)benzenesulfonamide]	< 10	30 to 80
CCc1ccc(S(=O)(=O)N2CCC(N(c3cccc(OC)n3)S(=O)(=O)c3ccccc3Cl)CC2)cc1 [Example 222, 2-Chloro-N-(1-((4-ethylphenyl)sulfonyl)piperidin-4-yl)-N-(6-methoxypyridin-2-yl)benzenesulfonamide]	< 10	10 to 30
Cc1ccc(N(C2CCN(S(=O)(=O)c3ccc4nc(C)oc4c3)CC2)S(=O)(=O)c2ccccc2Cl)nc1 [Example 223]	10 to 20	10 to 30
CCc1ccc(S(=O)(=O)N2CCC(N(c3ccccn3)S(=O)(=O)c3ccccc3C)CC2)cc1 [Example 225]	< 10	10 to 30
CCc1ccc(S(=O)(=O)N2CCC(N(c3ccccn3)S(=O)(=O)c3cccc(C)c3)CC2)cc1 [Example 226]	< 10	10 to 30
CCc1ccc(S(=O)(=O)N2CCC(N(c3ccc(C)cn3)S(=O)(=O)c3ccccc3Cl)CC2)cc1 [Example 227]	< 10	10 to 30
COc1ccc(N(C2CCN(S(=O)(=O)c3ccc4nc(C)oc4c3)CC2)S(=O)(=O)c2ccccc2Cl)nc1 [Example 228]	10 to 20	10 to 30
CCc1ccc(S(=O)(=O)N2CCC(N(c3ccccn3)S(=O)(=O)c3ccc(C)cc3)CC2)cc1 [Example 229]	< 10	10 to 30
CCc1ccc(S(=O)(=O)N2CCC(N(c3ccc(Cl)cn3)S(=O)(=O)c3ccccc3Cl)CC2)cc1 [Example 230]	< 10	30 to 80
CCc1ccc(S(=O)(=O)N2CCC(N(c3nccs3)S(=O)(=O)c3ccccc3Cl)CC2)cc1 [Example 231]	< 10	30 to 80

SMILES	EC50 [µM]	Emax [%]
CCc1ccc(S(=O)(=O)N2CCC(N(c3cccc(Cl)n3)S(=O)(=O)c3ccccc3Cl)CC2)cc1 [Example 232]	< 10	10 to 30
CCc1ccc(S(=O)(=O)N2CCC(N(c3cc(Cl)ccn3)S(=O)(=O)c3ccccc3Cl)CC2)cc1 [Example 233]	< 10	30 to 80
CCc1ccc(S(=O)(=O)N2CCC(N(c3ccccn3)S(=O)(=O)c3cccc(Cl)c3)CC2)cc1 [Example 234]	< 10	30 to 80
CCc1ccc(S(=O)(=O)N2CCC(N(c3ccccn3)S(=O)(=O)c3ccc(Cl)cc3)CC2)cc1 [Example 235]	< 10	30 to 80
CCc1ccc(S(=O)(=O)N2CCC(N(c3ccc(OC)cc3)S(=O)(=O)c3ccccc3Cl)CC2)cc1 [Example 236]	< 10	10 to 30
CCc1ccc(S(=O)(=O)N2CCC(N(c3ccc(C)cc3)S(=O)(=O)c3ccccc3Cl)CC2)cc1 [Example 237]	< 10	10 to 30
CCc1ccc(S(=O)(=O)N2CCC(N(c3cccc(C)c3)S(=O)(=O)c3ccccc3Cl)CC2)cc1 [Example 238]	< 10	30 to 80
CCc1ccc(S(=O)(=O)N2CCC(N(c3ccccc3OC)S(=O)(=O)c3ccccc3Cl)CC2)cc1 [Example 239]	< 10	10 to 30
CCc1ccc(S(=O)(=O)N2CCC(N(c3cc(C)ccn3)S(=O)(=O)c3ccccc3Cl)CC2)cc1 [Example 240]	< 10	10 to 30
CCc1ccc(S(=O)(=O)N2CCC(N(c3ccc(F)cc3)S(=O)(=O)c3ccccc3Cl)CC2)cc1 [Example 241]	< 10	10 to 30
CCc1ccc(S(=O)(=O)N2CCC(N(c3ncccn3)S(=O)(=O)c3ccccc3Cl)CC2)cc1 [Example 242]	< 10	10 to 30
CCc1ccc(S(=O)(=O)N2CCC(N(c3ccc(C(F)(F)F)cn3)S(=O)(=O)c3ccccc3Cl)CC2)cc1 [Example 243]	10 to 20	10 to 30
CCc1ccc(S(=O)(=O)N2CCC(N(c3cc(OC)ccn3)S(=O)(=O)c3ccccc3Cl)CC2)cc1 [Example 244]	10 to 20	30 to 80
CCc1ccc(S(=O)(=O)N2CCC(N(c3cnc(OC)cn3)S(=O)(=O)c3ccccc3Cl)CC2)cc1 [Example 245]	< 10	30 to 80
CCc1ccc(S(=O)(=O)N2CCC(N(c3cccc(OC)c3)S(=O)(=O)c3ccccc3Cl)CC2)cc1 [Example 246]	10 to 20	30 to 80
CCc1ccc(S(=O)(=O)N2CCC(N(c3ncccc3OC)S(=O)(=O)c3ccccc3Cl)CC2)cc1 [Example 247]	< 10	30 to 80
CCc1ccc(S(=O)(=O)N2CCC(N(c3cnccn3)S(=O)(=O)c3ccccc3Cl)CC2)cc1 [Example 248]	< 10	30 to 80
CCc1ccc(S(=O)(=O)N2CCC(N(c3ccncn3)S(=O)(=O)c3ccccc3Cl)CC2)cc1 [Example 249]	< 10	30 to 80
